Data from BigSolDB 2.1.

SMILES: CC(=O)NC1(C)CCC2CC1C(C)=NC2(C)C (stereo not given)
- solubility (mole fraction) (in 2-ethoxyethanol, 298.15 K): 0.00185
- solubility (mole fraction) (in 2-ethoxyethanol, 303.15 K): 0.00217
- solubility (mole fraction) (in 2-ethoxyethanol, 308.15 K): 0.00248
- solubility (mole fraction) (in 2-ethoxyethanol, 313.15 K): 0.00282
- solubility (mole fraction) (in 2-ethoxyethanol, 318.15 K): 0.00322
- solubility (mole fraction) (in acetone, 298.15 K): 0.00359
- solubility (mole fraction) (in acetone, 303.15 K): 0.00388
- solubility (mole fraction) (in acetone, 308.15 K): 0.00411
- solubility (mole fraction) (in acetone, 313.15 K): 0.00445
- solubility (mole fraction) (in acetone, 318.15 K): 0.00493
- solubility (mole fraction) (in acetonitrile, 298.15 K): 0.0257
- solubility (mole fraction) (in acetonitrile, 303.15 K): 0.0265
- solubility (mole fraction) (in acetonitrile, 308.15 K): 0.0275
- solubility (mole fraction) (in acetonitrile, 313.15 K): 0.0292
- solubility (mole fraction) (in acetonitrile, 318.15 K): 0.0305
- solubility (mole fraction) (in acrylonitrile, 298.15 K): 0.00442
- solubility (mole fraction) (in acrylonitrile, 303.15 K): 0.00458
- solubility (mole fraction) (in acrylonitrile, 308.15 K): 0.00487
- solubility (mole fraction) (in acrylonitrile, 313.15 K): 0.00528
- solubility (mole fraction) (in acrylonitrile, 318.15 K): 0.00581
- solubility (mole fraction) (in ethanol, 298.15 K): 0.00153
- solubility (mole fraction) (in ethanol, 303.15 K): 0.00184
- solubility (mole fraction) (in ethanol, 308.15 K): 0.00211
- solubility (mole fraction) (in ethanol, 313.15 K): 0.00244
- solubility (mole fraction) (in ethanol, 318.15 K): 0.00284
- solubility (mole fraction) (in isopropanol, 298.15 K): 0.00134
- solubility (mole fraction) (in isopropanol, 303.15 K): 0.00155
- solubility (mole fraction) (in isopropanol, 308.15 K): 0.00182
- solubility (mole fraction) (in isopropanol, 313.15 K): 0.00214
- solubility (mole fraction) (in isopropanol, 318.15 K): 0.00243
- solubility (mole fraction) (in methanol, 298.15 K): 0.00945
- solubility (mole fraction) (in methanol, 303.15 K): 0.0103
- solubility (mole fraction) (in methanol, 308.15 K): 0.0111
- solubility (mole fraction) (in methanol, 313.15 K): 0.0122
- solubility (mole fraction) (in methanol, 318.15 K): 0.0142
- solubility (mole fraction) (in n-butanol, 298.15 K): 0.00138
- solubility (mole fraction) (in n-butanol, 303.15 K): 0.00164
- solubility (mole fraction) (in n-butanol, 308.15 K): 0.00191
- solubility (mole fraction) (in n-butanol, 313.15 K): 0.00219
- solubility (mole fraction) (in n-butanol, 318.15 K): 0.00257
- solubility (mole fraction) (in n-propanol, 298.15 K): 0.00144
- solubility (mole fraction) (in n-propanol, 303.15 K): 0.00171
- solubility (mole fraction) (in n-propanol, 308.15 K): 0.00196
- solubility (mole fraction) (in n-propanol, 313.15 K): 0.00228
- solubility (mole fraction) (in n-propanol, 318.15 K): 0.00264
- solubility (mole fraction) (in propionitrile, 298.15 K): 0.00392
- solubility (mole fraction) (in propionitrile, 303.15 K): 0.00416
- solubility (mole fraction) (in propionitrile, 308.15 K): 0.0044
- solubility (mole fraction) (in propionitrile, 313.15 K): 0.00477
- solubility (mole fraction) (in propionitrile, 318.15 K): 0.00526
- solubility (mole fraction) (in propylene glycol, 298.15 K): 0.0197
- solubility (mole fraction) (in propylene glycol, 303.15 K): 0.0206
- solubility (mole fraction) (in propylene glycol, 308.15 K): 0.022
- solubility (mole fraction) (in propylene glycol, 313.15 K): 0.0232
- solubility (mole fraction) (in propylene glycol, 318.15 K): 0.0251
- solubility (mole fraction) (in water, 298.15 K): 0.0012
- solubility (mole fraction) (in water, 303.15 K): 0.00142
- solubility (mole fraction) (in water, 308.15 K): 0.0016
- solubility (mole fraction) (in water, 313.15 K): 0.00182
- solubility (mole fraction) (in water, 318.15 K): 0.0021

SMILES: CC1(N=C(O)c2ccccc2)CCC2CC1C(c1ccccc1)=[NH+]C2(C)C.[O-][Cl+3]([O-])([O-])[O-] (stereo not given)
- solubility (mole fraction) (in 2-ethoxyethanol, 298.15 K): 0.00256
- solubility (mole fraction) (in 2-ethoxyethanol, 303.15 K): 0.00297
- solubility (mole fraction) (in 2-ethoxyethanol, 308.15 K): 0.00348
- solubility (mole fraction) (in 2-ethoxyethanol, 313.15 K): 0.0041
- solubility (mole fraction) (in 2-ethoxyethanol, 318.15 K): 0.0048
- solubility (mole fraction) (in acetone, 298.15 K): 0.00275
- solubility (mole fraction) (in acetone, 303.15 K): 0.00308
- solubility (mole fraction) (in acetone, 308.15 K): 0.00363
- solubility (mole fraction) (in acetone, 313.15 K): 0.00425
- solubility (mole fraction) (in acetone, 318.15 K): 0.00495
- solubility (mole fraction) (in acetonitrile, 298.15 K): 0.00307
- solubility (mole fraction) (in acetonitrile, 303.15 K): 0.0035
- solubility (mole fraction) (in acetonitrile, 308.15 K): 0.00421
- solubility (mole fraction) (in acetonitrile, 313.15 K): 0.00488
- solubility (mole fraction) (in acetonitrile, 318.15 K): 0.00572
- solubility (mole fraction) (in acrylonitrile, 298.15 K): 0.00592
- solubility (mole fraction) (in acrylonitrile, 303.15 K): 0.00661
- solubility (mole fraction) (in acrylonitrile, 308.15 K): 0.00743
- solubility (mole fraction) (in acrylonitrile, 313.15 K): 0.00856
- solubility (mole fraction) (in acrylonitrile, 318.15 K): 0.0104
- solubility (mole fraction) (in ethanol, 298.15 K): 0.0015
- solubility (mole fraction) (in ethanol, 303.15 K): 0.00182
- solubility (mole fraction) (in ethanol, 308.15 K): 0.00223
- solubility (mole fraction) (in ethanol, 313.15 K): 0.00264
- solubility (mole fraction) (in ethanol, 318.15 K): 0.00316
- solubility (mole fraction) (in isopropanol, 298.15 K): 0.000845
- solubility (mole fraction) (in isopropanol, 303.15 K): 0.00103
- solubility (mole fraction) (in isopropanol, 308.15 K): 0.00132
- solubility (mole fraction) (in isopropanol, 313.15 K): 0.00163
- solubility (mole fraction) (in isopropanol, 318.15 K): 0.00199
- solubility (mole fraction) (in methanol, 298.15 K): 0.00289
- solubility (mole fraction) (in methanol, 303.15 K): 0.00327
- solubility (mole fraction) (in methanol, 308.15 K): 0.0038
- solubility (mole fraction) (in methanol, 313.15 K): 0.00445
- solubility (mole fraction) (in methanol, 318.15 K): 0.00534
- solubility (mole fraction) (in n-butanol, 298.15 K): 0.000928
- solubility (mole fraction) (in n-butanol, 303.15 K): 0.00113
- solubility (mole fraction) (in n-butanol, 308.15 K): 0.00146
- solubility (mole fraction) (in n-butanol, 313.15 K): 0.00178
- solubility (mole fraction) (in n-butanol, 318.15 K): 0.00221
- solubility (mole fraction) (in n-propanol, 298.15 K): 0.0013
- solubility (mole fraction) (in n-propanol, 303.15 K): 0.0016
- solubility (mole fraction) (in n-propanol, 308.15 K): 0.00193
- solubility (mole fraction) (in n-propanol, 313.15 K): 0.00232
- solubility (mole fraction) (in n-propanol, 318.15 K): 0.00288
- solubility (mole fraction) (in propionitrile, 298.15 K): 0.00186
- solubility (mole fraction) (in propionitrile, 303.15 K): 0.00215
- solubility (mole fraction) (in propionitrile, 308.15 K): 0.00254
- solubility (mole fraction) (in propionitrile, 313.15 K): 0.00305
- solubility (mole fraction) (in propionitrile, 318.15 K): 0.00346
- solubility (mole fraction) (in propylene glycol, 298.15 K): 0.0122
- solubility (mole fraction) (in propylene glycol, 303.15 K): 0.0132
- solubility (mole fraction) (in propylene glycol, 308.15 K): 0.0147
- solubility (mole fraction) (in propylene glycol, 313.15 K): 0.0164
- solubility (mole fraction) (in propylene glycol, 318.15 K): 0.0187
- solubility (mole fraction) (in water, 298.15 K): 3.8e-05
- solubility (mole fraction) (in water, 303.15 K): 5.7e-05
- solubility (mole fraction) (in water, 308.15 K): 7.7e-05
- solubility (mole fraction) (in water, 313.15 K): 9.9e-05
- solubility (mole fraction) (in water, 318.15 K): 0.000115
